Results taken from ChEMBL document CHEMBL1148188, “Cytotoxic and antimalarial alkaloids from the bulbs of Crinum amabile” (J Nat Prod, 1993).
≈ marks a conversion by molar mass, not a printed value.

Key:
[1] = Cytotoxicity against human KBV1 cells after 3 days by sulforhodamine B assay; format: functional; settings: KB-V1, 72 h, read-out: ED50 (the source's name)
[2] = Cytotoxicity against human BCA1 cells after 3 days by sulforhodamine B assay; format: functional; settings: BCA1, 72 h, read-out: ED50 (the source's name)
[3] = Cytotoxicity against human U373 cells after 3 days by sulforhodamine B assay; format: functional, U-373MG ATCC; settings: U373 MG, 72 h, read-out: ED50 (the source's name)
[4] = Cytotoxicity against human LUC1 cells after 3 days by sulforhodamine B assay; format: functional; settings: LUC1, 72 h, read-out: ED50 (the source's name)
P388 = test: Cytotoxicity against mouse P388 cells after 3 days by sulforhodamine B assay; format: functional; settings: P388, 72 h, read-out: ED50 (the source's name)
LNCaP = test: Cytotoxicity against human LNCAP cells after 3 days by sulforhodamine B assay; format: functional; settings: 72 h, read-out: ED50 (the source's name)
KB = test: Cytotoxicity against human KB cells after 3 days by sulforhodamine B assay; format: functional; settings: 72 h, read-out: ED50 (the source's name)
HT-1080 = test: Cytotoxicity against human HT1080 cells after 3 days by sulforhodamine B assay; format: functional; settings: HT-1080, 72 h, read-out: ED50 (the source's name)
ZR-75-1 = test: Cytotoxicity against human ZR-75-1 cells after 3 days by sulforhodamine B assay; format: functional; settings: ZR-75-1, 72 h, read-out: ED50 (the source's name)
A-431 = test: Cytotoxicity against human A431 cells after 3 days by sulforhodamine B assay; format: functional; settings: A-431, 72 h, read-out: ED50 (the source's name)
SK-MEL-2 = test: Cytotoxicity against human SK-MEL-2 cells after 3 days by sulforhodamine B assay; format: functional; settings: SK-MEL-2, 72 h, read-out: ED50 (the source's name)
[5] = Cytotoxicity against human Col1 cells after 3 days by sulforhodamine B assay; format: functional; settings: Col1, 72 h, read-out: ED50 (the source's name)
[6] = Selectivity index, ratio of ED50 for human KB cells to ED50 for Plasmodium falciparum D6; format: toxicity, cell-based; settings: read-out: Ratio ED50
Plasmodium falciparum [7] = test: Antimalarial activity after 24 hrs against Plasmodium falciparum W2 infected in type A+ human erythrocytes by [3H]hypoxanthine uptake; format: functional; settings: W2, read-out: ED50
[8] = Selectivity index, ratio of ED50 for human KB cells to ED50 for Plasmodium falciparum W2; format: toxicity, cell-based; settings: read-out: Ratio ED50
Plasmodium falciparum [9] = test: Antimalarial activity after 24 hrs against Plasmodium falciparum D6 infected type A+ human erythrocytes by [3H]hypoxanthine uptake; format: functional; settings: D6, read-out: ED50

For `O[C@@H]1CC[C@H]2N3CC[C@@]2(c2cc4c(cc2C3)OCO4)[C@@H]1O`, the EC50 [1] was greater than 20 µg/mL, the EC50 [2] was greater than 20 µg/mL and the EC50 [3] was greater than 20 µg/mL. The EC50 [4] was greater than 20 µg/mL, the EC50 (P388) was greater than 5 µg/mL and the EC50 (LNCaP) was greater than 20 µg/mL. For the same compound, the EC50 (KB) was greater than 20 µg/mL, the EC50 (HT-1080) was greater than 20 µg/mL and the EC50 (ZR-75-1) was greater than 20 µg/mL. For the same compound, the EC50 (A-431) was greater than 20 µg/mL, the EC50 (SK-MEL-2) was greater than 20 µg/mL and the EC50 [5] was greater than 20 µg/mL.

`CO[C@@H]1C[C@H]2N3CC[C@@]2(c2cc4c(cc2C3)OCO4)[C@H]2O[C@@H]12` showed an EC50 [1] greater than 20 µg/mL, an EC50 [2] of 2.8 µg/mL (≈ 9.29 µM) and an EC50 [3] of 0.6 µg/mL (≈ 1.99 µM). It also gave a selectivity ratio [6] of 4, an EC50 [4] of 3.7 µg/mL (≈ 12.3 µM) and an EC50 (P388) of 0.6 µg/mL (≈ 1.99 µM). The EC50 (LNCaP) was 1.7 µg/mL (≈ 5.64 µM), the EC50 (KB) was 0.6 µg/mL (≈ 1.99 µM) and the EC50 (HT-1080) was 1.2 µg/mL (≈ 3.98 µM). For the same compound, the EC50 (ZR-75-1) was 1.8 µg/mL (≈ 5.97 µM), the EC50 (A-431) was 4.9 µg/mL (≈ 16.3 µM) and the EC50 (SK-MEL-2) was 3.2 µg/mL (≈ 10.6 µM). The EC50 (Plasmodium falciparum [7]) was 0.18 µg/mL (≈ 0.597 µM), the selectivity ratio [8] was 3 and the EC50 [5] was 2.4 µg/mL (≈ 7.96 µM). For the same compound, the EC50 (Plasmodium falciparum [9]) was 0.14 µg/mL (≈ 0.465 µM).

Compound `CO[C@H]1C=C[C@@]23c4cc5c(cc4CN(C[C@@H]2O)[C@H]3C1)OCO5` has an EC50 [1] of 0.6 µg/mL (≈ 1.99 µM), an EC50 [2] of 1.4 µg/mL (≈ 4.65 µM) and an EC50 [3] of 0.9 µg/mL (≈ 2.99 µM). The selectivity ratio [6] was 0.4, the EC50 [4] was 1.4 µg/mL (≈ 4.65 µM) and the EC50 (P388) was 0.7 µg/mL (≈ 2.32 µM). For the same compound, the EC50 (LNCaP) was 1.5 µg/mL (≈ 4.98 µM), the EC50 (KB) was 1 µg/mL (≈ 3.32 µM) and the EC50 (HT-1080) was 1.3 µg/mL (≈ 4.31 µM). The EC50 (ZR-75-1) was 0.8 µg/mL (≈ 2.65 µM), the EC50 (A-431) was 6.9 µg/mL (≈ 22.9 µM) and the EC50 (SK-MEL-2) was 5 µg/mL (≈ 16.6 µM). It also gave a selectivity ratio [8] of 0.4 and an EC50 [5] of 1 µg/mL (≈ 3.32 µM).

For `COC1C=C[C@@]23CCN(Cc4cc5c(cc42)OCO5)[C@@H]3C1` (stereo partly drawn), the EC50 [1] was 19.8 µg/mL (≈ 69.4 µM), the EC50 [2] was greater than 20 µg/mL and the EC50 [3] was greater than 20 µg/mL. The EC50 [4] was greater than 20 µg/mL, the EC50 (P388) was greater than 5 µg/mL and the EC50 (LNCaP) was greater than 20 µg/mL. For the same compound, the EC50 (KB) was greater than 20 µg/mL, the EC50 (HT-1080) was greater than 20 µg/mL and the EC50 (ZR-75-1) was greater than 20 µg/mL. The EC50 (A-431) was greater than 20 µg/mL, the EC50 (SK-MEL-2) was greater than 20 µg/mL and the EC50 [5] was greater than 20 µg/mL.

`C[C@@H]1CC[C@H]2[C@@H](C)C(=O)O[C@@H]3O[C@@]4(C)CC[C@@H]1[C@]32OO4` [ARTEMISININ] gave a selectivity ratio [6] greater than 33300, a selectivity ratio [8] greater than 40000 and an EC50 (Plasmodium falciparum [9]) of 0.0006 µg/mL (≈ 0.00213 µM).

`CCN(CC)CCCC(C)Nc1ccnc2cc(Cl)ccc12` (stereo not drawn) [CHLOROQUINE] gave an EC50 (Plasmodium falciparum [7]) of 0.0112 µg/mL (≈ 0.035 µM) and an EC50 (Plasmodium falciparum [9]) of 0.0013 µg/mL (≈ 0.00406 µM).

`O[C@H]1[C@H]2c3cc4c(cc3CN3CCC(=C[C@@H]1O)[C@H]23)OCO4` [LYCORINE] gave an EC50 [1] of 0.4 µg/mL (≈ 1.39 µM), an EC50 [2] of 1.6 µg/mL (≈ 5.57 µM) and an EC50 [3] of 0.3 µg/mL (≈ 1.04 µM). For the same compound, the selectivity ratio [6] was 1, the EC50 [4] was 0.9 µg/mL (≈ 3.13 µM) and the EC50 (P388) was 0.9 µg/mL (≈ 3.13 µM). The EC50 (LNCaP) was 0.5 µg/mL (≈ 1.74 µM), the EC50 (KB) was 0.3 µg/mL (≈ 1.04 µM) and the EC50 (HT-1080) was 0.5 µg/mL (≈ 1.74 µM). It also gave an EC50 (ZR-75-1) of 0.9 µg/mL (≈ 3.13 µM), an EC50 (A-431) of 1.3 µg/mL (≈ 4.52 µM) and an EC50 (SK-MEL-2) of 1.6 µg/mL (≈ 5.57 µM). For the same compound, the EC50 (Plasmodium falciparum [7]) was 0.3 µg/mL (≈ 1.04 µM), the selectivity ratio [8] was 1 and the EC50 [5] was 0.8 µg/mL (≈ 2.78 µM). For the same compound, the EC50 (Plasmodium falciparum [9]) was 0.32 µg/mL (≈ 1.11 µM).

`OC(c1cc(C(F)(F)F)nc2c(C(F)(F)F)cccc12)C1CCCCN1` (stereo not drawn) [MEFLOQUINE] gave a selectivity ratio [6] of 480, an EC50 (Plasmodium falciparum [7]) of 0.0016 µg/mL (≈ 0.00423 µM) and a selectivity ratio [8] of 2190. The EC50 (Plasmodium falciparum [9]) was 0.0073 µg/mL (≈ 0.0193 µM).

For `C=C[C@H]1CN2CC[C@H]1C[C@H]2[C@H](O)c1ccnc2ccc(OC)cc12` [QUININE], the selectivity ratio [6] was greater than 2130, the EC50 (Plasmodium falciparum [7]) was 0.0245 µg/mL (≈ 0.0755 µM) and the selectivity ratio [8] was greater than 820. For the same compound, the EC50 (Plasmodium falciparum [9]) was 0.0094 µg/mL (≈ 0.029 µM).
